Measured values as given in EP1038880B1, “Androstanes and pregnanes for allosteric modulation of GABA receptor” (priority 1994, dated 1995).
pIC50: −log10 of the molar value. Where “and” joins values, the source holds several entries; their conditions need not be identical. Identical values can stand only once.

Key:
[1] = biological target: GR complex; assay: [35S]TBPS binding assay (inhibition of [35S]TBPS binding, cerebral cortex P2 homogenate); design: species or system rat; settings: for pIC50: 2 nM [35S]TBPS, rat cerebral cortex P2 homogenate; for IMAX: maximum inhibition of [35S]TBPS binding
Procedure: We performed several experiments to determine the nature of the modulation of [^35S]TBPS as affected by the compounds of the invention.
These procedures were performed as follows:
Brains from male Sprague-Dawley rats were removed immediately following sacrifice and the cerebral cortices dissected over ice. […] Briefly, the cortices were gently homogenized in 0.32 M sucrose followed by centrifugation at 1000 x g for 10 minutes. The supernatant was collected and centrifuged at 9000 x g for 20 minutes. The resultant P2 pellet was suspended as a 10% (original wet weight/volume) suspension in 50 mM Na/K phosphate buffer (pH 7.4) 200 mM NaCl to form the homogenate.
One hundred microliter […] aliquots of the P2 homogenate (0.5 milligrams (mg) protein) were incubated with 2 nanomolar (nM) [^35S]TBPS (70-110 curies/millimole; New England Nuclear, Boston, MA) in the presence or absence of the naturally occurring steroids or their synthetic derivatives to be tested. The tested compounds were dissolved in dimethylsulfoxide (Baker Chem. Co., Phillipsbury, NJ) and added to the incubation mixture in 5 µL aliquots. The incubation mixture was brought to a final volume of 1 mL with buffer. Non-specific binding was defined as binding in the presence of […] TBPS. The effect and specificity of GABA (Sigma Chem. Co., St. Louis, MO) was evaluated by performing all assays in the presence of GABA plus (+)bicuculline (Sigma Chem. Co.). maintained at 25°C for 90 minutes (steady state conditions) were terminated by rapid filtration through glass fiber filters (No. 32, Schleicher and Schuell, Keene, NH). Filter-bound radioactivity was quantitated by liquid scintillation spectrophotometry.
Various compounds were screened to determine their potential as modulators of [^35S]TBPS binding in vitro. These assays were performed in accordance with the above discussed procedures. […] It is an indication of a compound's in vitro potency. Maximum inhibition is an indication of a compound's in vitro efficacy.

[2] = tested on: metrazol induced convulsions; assay: animal or person; format: in vivo, mice; settings: for responders at 10 mg/kg: Mus musculus, 10 min, 10 minutes prior to metrazol (85 mg/kg), read-out: % Protected
Procedure: Experiments were also performed to determine the physiological relevance of neuroactive steroid and GABA receptor interactions by assessing the ability of the compounds of and used in the invention to prevent metrazol induced convulsions in mice. Mice were injected with various doses of the test compounds of the invention, 10 minutes prior to the injection of metrazol. The time to onset of myoclomis (presence of forelimb clonic activity) induced by metrazol was determined by observing each mouse for a period of 30 minutes. […] Table 6: Antimetrazol Activity of Neuroactive Steroids in Mice
The anticonvulsant tests are similar to that described above. […] The number of animals with tonic and/or clonic convulsions was recorded. In the maximal electroshock test, 50 mA of current at 60 Hz was delivered through corneal electrodes for 200 msec to induce tonic seizure. The ability of compounds to abolish the tonic component was defined as the endpoint. General CNS depression potential was determined by a rotorod test 10 minutes after the injection of compounds where the number of mice staying on a rotating (6 rpm) rod for 1 minute in one of the three trials was determined. […] Table 7. Anticonvulsant Activity of Exemplified Neuroactive Steroids and those of Selected Clinically Useful Anticonvulsants in Mice

With `CC(=O)C1CCC2C3CCC4CC(O)(C#CC(C)O)CCC4(C)C3CCC12C` (racemic) [3β-[3'(R/S)-hydroxy-1'-butynyl]-3α-hydroxy-5α-pregnan-20-one] the pIC50 [1] was 6.84 and 6.69, the IMAX [1] was 99% and 102% and the responders at 10 mg/kg ([2]; IP) was 50%.

With `CC(=O)C1CCC2C3CCC4CC(O)(C#CCC(C)O)CCC4(C)C3CCC12C` (racemic) [3β-[4'(R/S) hydroxypentynyl]-3α-hydroxy-5β-pregnan-20-one] the pIC50 [1] was 7.15 and 7.03, the IMAX [1] was 103% and 104% and the responders at 10 mg/kg ([2]; IP) was 87.5%.

`CC(=O)[C@H]1CC[C@H]2[C@@H]3CC[C@@H]4C[C@@](O)(C#CCOc5ccncc5)CC[C@]4(C)[C@H]3CC[C@]12C` [3α-Hydroxy-3β-[3-(4'-pyridinyloxy)-1-propynyl]-5β-pregnan-20-one] gave a pIC50 [1] of 6.33, an IMAX [1] of 94% and a responders at 10 mg/kg ([2]; IP) of 12.5%.

For `CC(=O)[C@H]1CC[C@H]2[C@@H]3CC[C@@H]4C[C@@](O)(C#Cc5ccc(N(C)C)cc5)CC[C@]4(C)[C@H]3CC[C@]12C` [3β-(4'-dimethylaminophenyl)ethynyl-3α-hydroxy-5β-pregnan-20-one], the pIC50 [1] was 7.55 and the IMAX [1] was 77%.

`CC(=O)C1CCC2C3CCC4CC(O)(C#CCCO)CCC4C3CCC12C` (stereo not drawn) [3β-(4'-hydroxy-1'-butynyl)-3α-hydroxy-5β-19-norpregnan-20-one] gave a pIC50 [1] of 7.66 and an IMAX [1] of 102%.

`CC(=O)[C@H]1CC[C@H]2[C@@H]3CC[C@@H]4C[C@@](O)(C#CCCO)CC[C@]4(C)[C@H]3CC[C@]12C` [3β-(4'-hydroxy-1'-butynyl)-3α-hydroxy-5β-pregnan-20-one] was tested, and the pIC50 [1] was 7.89 and the IMAX [1] was 103%.

With `CC(=O)C1CCC2C3CCC4CC(O)(C#CCCO)CCC4(C)C3CCC12C` (stereo not drawn) [3β-(4'-hydroxybutynyl)-3α-hydroxy-5α-pregnan-20-one] the IMAX [1] was 95%.

`COc1ccc(C#CC2(O)CCC3(C)C(CCC4C3CCC3(C)C(C(C)=O)CCC43)C2)cc1` (stereo not drawn) [3β-(4'-methoxyphenylethynyl)-3α-hydroxy-5β-pregnan-20-one] gave a pIC50 [1] of 7.33 and an IMAX [1] of 89%.

In the case of `CC(=O)[C@H]1CC[C@H]2[C@@H]3CC[C@@H]4C[C@@](O)(C#CCCC#N)CC[C@]4(C)[C@H]3CC[C@]12C` [3β-(4-cyano-1-butynyl)-3α-hydroxy-5β-pregnan-20-one], the pIC50 [1] was 6.88 and the IMAX [1] was 86%.

`CC(=O)OCCCC#C[C@@]1(O)CC[C@@]2(C)[C@H](CC[C@@H]3[C@@H]2CC[C@]2(C)[C@@H](C(C)=O)CC[C@@H]32)C1` [3β-(5'-Acetoxy-1'-pentynyl)-3α-hydroxy-5β-pregnan-20-one] was tested, and the pIC50 [1] was 7.02, the IMAX [1] was 98% and the responders at 10 mg/kg ([2]; IP) was 12.5%.

For `CC(=O)[C@H]1CC[C@H]2[C@@H]3CC[C@@H]4C[C@@](O)(C#CCCCC(N)=O)CC[C@]4(C)[C@H]3CC[C@]12C` [3β-(5'-Carboxamidopentynyl)-3α-hydroxy-5β-pregnan-20-one], the pIC50 [1] was 5.51 and the IMAX [1] was 102%.

With `CC(=O)OCCCCC#C[C@@]1(O)CC[C@@]2(C)[C@H](CC[C@@H]3[C@@H]2CC[C@]2(C)[C@@H](C(C)=O)CC[C@@H]32)C1` [3β-(6'Acetoxy-1'-hexynyl)-3α-hydroxy-5β-pregnan-20-one] the pIC50 [1] was 6.51 and the IMAX [1] was 99%.

`CC(=O)[C@H]1CC[C@H]2[C@@H]3CC[C@@H]4C[C@@](O)(C#CCCCCO)CC[C@]4(C)[C@H]3CC[C@]12C` [3β-(6-hydroxy-1-hexynyl)-3α-hydroxy-5β-pregnan-20-one] gave a pIC50 [1] of 6.65 and an IMAX [1] of 99%.

`CC(=O)[C@H]1CC[C@H]2[C@@H]3CC[C@@H]4C[C@@](O)(C#Cc5c(F)c(F)c(F)c(F)c5F)CC[C@]4(C)[C@H]3CC[C@]12C` [3β-(pentafluorophenylethynyl)-3α-hydroxy-5β-pregnan-20-one] was tested, and the pIC50 [1] was 7.10 and the IMAX [1] was 69%.

`CC(=O)[C@H]1CC[C@H]2[C@@H]3CC[C@@H]4C[C@@](O)(Cc5ccccc5)CC[C@]4(C)[C@H]3CC[C@]12C` [3β-Benzyl-3α-hydroxy-5β-pregnan-20-one, 3α-hydroxy-3β-benzyl-5β-pregnan-20-one] showed a pIC50 [1] of 6.96 and an IMAX [1] of 102%.

`CC(=O)[C@H]1CC[C@H]2[C@@H]3CC[C@H]4C[C@@H](O)CC[C@]4(C)[C@H]3CC[C@]12C` [3β-Hydroxy-5α-pregnan-20-one, reference compound] was tested, and the pIC50 [1] was < 3.00 and the IMAX [1] was 33%.

`CC(=O)[C@H]1CC[C@H]2[C@@H]3CC[C@@H]4C[C@@](O)(C#CCN(C)C)CC[C@]4(C)[C@H]3CC[C@]12C` [3β-[3'-(N,N-dimethylamino)-1'-propynyl]-3α-hydroxy-5β-pregnan-20-one] was tested, and the pIC50 [1] was 5.85 and the IMAX [1] was 100%.

`CCN(CC)C(=O)c1ccc(C#CC2(O)CCC3(C)C(CCC4C3CCC3(C)C(C(C)=O)CCC43)C2)cc1` (stereo not drawn) [3β-[4'-(N,N-diethylcarboxamido)phenyl]ethynyl-3α-hydroxy-5β-pregnan-20-one] showed a pIC50 [1] of 7.06 and an IMAX [1] of 94%.

`C#C[C@@]1(O)CC[C@@]2(C)[C@H](CC[C@@H]3[C@@H]2CC[C@]2(C)[C@@H](C(=O)Cn4cncn4)CC[C@@H]32)C1` [3β-ethynyl-3α-hydroxy-21-(1',2',4'-triazoyl)-5β-pregnan-20-one] showed a pIC50 [1] of 6.90 and an IMAX [1] of 98%.

With `CC(=O)C1CCC2C3CCC4CC(OC(=O)c5ccc(Cl)cc5)CCC4(C)C3CCC12C` (stereo not shown) [4-Chlorophenyl] the “% Protection” value ([2]; 60 mg/kg, 1hr, IP) was 50%.

For `COc1ccc(C(=O)OC2CCC3(C)C(CCC4C3CCC3(C)C(C(C)=O)CCC43)C2)cc1` (stereo not shown) [4-Methoxyphenyl], the “% Protection” value ([2]; 60 mg/kg, 1hr, IP) was 17%.

For `C[C@]12C[C@H](O)[C@H]3[C@@H](CCC4=CC(=O)CC[C@@]43C)[C@@H]1CC[C@@H]2C(=O)CO` [4-Pregnen-11β,21-diol-3,20-dione, reference compound], the pIC50 [1] was < 3.00 and the IMAX [1] was 30%.

Compound `C[C@]12CC[C@@H]3c4ccc(O)cc4CC[C@H]3[C@@H]1CC[C@@H]2O` [17β-Estradiol, reference compound] has an IMAX [1] of 0%.

With `C[C@@]1(O)CC[C@@]2(C)[C@@H](CC[C@@H]3[C@@H]2CC[C@]2(C)[C@@H](C(=O)Cn4cnc5ccccc54)CC[C@@H]32)C1` [21-(1' benzimidazolyl)-3α-hydroxy-3β-methyl-5α-pregnan-20-one] the pIC50 [1] was 6.96 and the IMAX [1] was 95%.

For `CCCCC(=O)OC1CCC2(C)C(CCC3C2CCC2(C)C(C(C)=O)CCC32)C1` (stereo not shown) [Butyl], the “% Protection” value ([2]; mouse, in vivo) was 33%.

`CC(C)CCC[C@@H](C)[C@H]1CC[C@H]2[C@@H]3CC=C4C[C@@H](O)CC[C@]4(C)[C@H]3CC[C@]12C` [Cholesterol, reference compound] showed an IMAX [1] of 0%.

`CCC(=O)OC1CCC2(C)C(CCC3C2CCC2(C)C(C(C)=O)CCC32)C1` (stereo not shown) [Ethyl] was tested, and the “% Protection” value ([2]; 60 mg/kg, 1hr, IP) was 75%.

With `CC(=O)C1CCC2C3CCC4CC(OC(=O)C(C)C)CCC4(C)C3CCC12C` (stereo not shown) [Example 2-Propyl] the “% Protection” value ([2]; 60 mg/kg, 1hr, IP) was 75%.

In the case of `CC(=O)C1CCC2C3CCC4CC(OC(=O)c5cccnc5)CCC4(C)C3CCC12C` (stereo not shown) [Example 3-Pyridyl], the “% Protection” value ([2]; 60 mg/kg, IP, 20hour) was 50(20hour) %.

In the case of `CCCC(CCC)C(=O)OC1CCC2(C)C(CCC3C2CCC2(C)C(C(C)=O)CCC32)C1` (stereo not shown) [Example 4-Heptyl], the “% Protection” value ([2]; 60 mg/kg, IP, 4 hour) was 16 (4 hour) %.

With `CC(=O)OC1CCC2(C)C(CCC3C2CCC2(C)C(C(C)=O)CCC32)C1` (stereo not shown) [Methyl] the “% Protection” value ([2]; 60 mg/kg, 1hr, IP) was 25%.

For `CC(=O)[C@H]1CC[C@H]2[C@@H]3CC[C@H]4C[C@H](OC(=O)c5ccccc5)CC[C@]4(C)[C@H]3CC[C@]12C` [Phenyl], the “% Protection” value ([2]; 60 mg/kg, 1hr, IP) was 33%.

Work on `CC(=O)[C@H]1CC[C@H]2[C@@H]3CCC4=CC(=O)CC[C@]4(C)[C@H]3CC[C@]12C` [Progesterone, reference compound] yielded a pIC50 [1] of 5.28 and an IMAX [1] of 100%.

For `CCCC(=O)OC1CCC2(C)C(CCC3C2CCC2(C)C(C(C)=O)CCC32)C1` (stereo not shown) [Propyl], the “% Protection” value ([2]; 60 mg/kg, 1hr, IP) was 75%.

Work on `C[C@]12CC[C@@H](O)C[C@@H]1CC[C@@H]1[C@@H]2CC[C@]2(C)[C@@H](C(=O)CSS(=O)(=O)[O-])CC[C@@H]12.[Na+]` [Sodium S-(3α-hydroxy-5α-pregnan-20-on-21-yl) thiosulfate] yielded a pIC50 [1] of 6.88 and an IMAX [1] of 90%.
